Results: patent publication US5047397A, “Linear analogs of atrial natriuretic peptides” (California Biotechnology Inc., priority 1988, dated 1991)
*1 amine or outer side, *2 acyl side, *3 side chain or, on linkers, in order; H or OH if unused. Where a SMILES comes first, the peptide text is derived from it. Bridges are numbered along the chain shown (N, C = ends). Where no end group is shown, it is not given here. [ ]: non-standard residue; d: D form. The star is where a group is joined. Acetyl(2-naphthyloxy) = O=C(COc1ccc2ccccc2c1)*; Acetyl(2-naphthyl) = O=C(Cc1ccc2ccccc2c1)*; NH(2S-methylbutyl) = CC[C@H](C)CN*; 2Naphthoyl = O=C(c1ccc2ccccc2c1)*; NMeI = CC[C@H](C)[C@H](NC)C(=O)O; X1 = O=C(Cc1ccc(N[*:1])cc1)[*:2]; Inp = O=C(O)C1CCNCC1

Molecular target: T1, specific ANP receptor sites on BASM or BAE cells (Bos taurus, UniProt P10730)
T1 construct: specific receptor sites on BASM or BAE cells; endogenous in cells; host or cells: cultured BASM and BAE cells
T1 sequence (P10730 42-537): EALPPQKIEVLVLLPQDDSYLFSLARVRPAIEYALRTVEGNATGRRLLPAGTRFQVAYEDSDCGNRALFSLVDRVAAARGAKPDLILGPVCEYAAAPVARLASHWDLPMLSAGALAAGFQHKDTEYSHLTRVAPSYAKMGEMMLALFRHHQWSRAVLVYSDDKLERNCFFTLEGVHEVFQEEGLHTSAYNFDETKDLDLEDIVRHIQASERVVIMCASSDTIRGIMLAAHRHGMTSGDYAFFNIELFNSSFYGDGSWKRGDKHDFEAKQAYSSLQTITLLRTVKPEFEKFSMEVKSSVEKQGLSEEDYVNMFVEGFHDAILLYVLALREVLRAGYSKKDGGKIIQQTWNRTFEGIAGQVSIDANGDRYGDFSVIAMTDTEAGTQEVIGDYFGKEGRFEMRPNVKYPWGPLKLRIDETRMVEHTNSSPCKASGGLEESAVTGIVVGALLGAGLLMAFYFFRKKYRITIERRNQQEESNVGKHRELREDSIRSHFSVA
Test: Competitive displacement receptor binding of (125I)-rANP(126-150) on cultured cells
Design: species or system bovine
Conditions: concentration of unlabeled peptide displacing 50% of maximal binding of 0.5 nM (125I)-rANP(126-150); BASM or BAE cells
Excerpt: Analogous "competitive displacement" receptor binding assays are considered commonplace in the art for examining specific ligand-receptor interactions.
Assuming these ANP analogs act at one or more ANP receptor sites, then increased receptor affinity should reflect increased biological potency.

Compound | Ki(app) [nM]
CC[C@H](C)[C@@H]1NC(=O)[C@H](CCCNC(=N)N)NC(=O)[C@H](CC(=O)O)NC(=O)[C@H]([C@@H](C)CC)NC(=O)[C@H](CCCNC(=N)N)NC(=O)CNC(=O)CNC(=O)[C@@H](NC(=O)[C@H](CO)NC(=O)[C@H](CO)NC(=O)[C@@H](N)CCCNC(=N)N)CSSC[C@@H](C(=O)N[C@@H](CC(N)=O)C(=O)N[C@@H](CO)C(=O)N[C@@H](Cc2ccccc2)C(=O)N[C@@H](CCCNC(=N)N)C(=O)N[C@@H](Cc2ccc(O)cc2)C(=O)O)NC(=O)CNC(=O)[C@H](CC(C)C)NC(=O)CNC(=O)[C@H](CO)NC(=O)[C@H](CCC(N)=O)NC(=O)[C@H](C)NC(=O)CNC1=O [AP23, R--S--S--C--G--G--R--I--D--R--I--G--A--Q--S--G--L--G--C--N--S--F--R--Y] (H-RSSCGGRIDRIGAQSGLGCNSFRY-OH; disulfide 4-19) | 7.76
CC[C@H](C)[C@H](NC(=O)[C@H](CCCNC(=N)N)NC(=O)[C@H](CC(=O)O)NC(=O)[C@@H](NC(=O)[C@H](CCCNC(=N)N)NC(=O)CNC(=O)[C@@H](C)NC(=O)COc1ccc2ccccc2c1)[C@@H](C)CC)C(N)=O [AP322, (2-NOA)--A^ --G--R--I--D--R--I--NH2] ({Acetyl(2-naphthyloxy)}-[dA]GRIDRI-NH2) | > 100
CC[C@H](C)[C@H](NC(=O)[C@H](CCCNC(=N)N)NC(=O)CNC(=O)CNC(=O)Cc1ccc2ccccc2c1)C(=O)N[C@@H](CC(=O)O)C(=O)N[C@@H](CCCNC(=N)N)C(=O)N[C@@H](C(N)=O)C(C)C [AP535, (2-NA)--G--G--R--I--D--R--V^ --NH2)] ({Acetyl(2-naphthyl)}-GGRIDR[dV]-NH2) | 14.0
CCNC(=O)CNC(=O)[C@H]([C@@H](C)CC)N(C)C(=O)[C@H](CCCNC(=N)N)NC(=O)[C@H](CC(=O)O)NC(=O)[C@@H](NC(=O)[C@H](CCCNC(=N)N)NC(=O)CNC(=O)CNC(=O)Cc1ccc2ccccc2c1)[C@@H](C)CC [AP529] ({Acetyl(2-naphthyl)}-GGRIDR[NMeI]G-NHEt) | 87.3
CC[C@H](C)[C@H](NC(=O)[C@H](CCCNC(=N)N)NC(=O)[C@H](CC(=O)O)NC(=O)[C@@H](NC(=O)[C@H](CCCNC(=N)N)NC(=O)CNC(=O)CNC(=O)Cc1ccc2ccccc2c1)[C@@H](C)CC)C(=O)NCC(=O)N[C@@H](C)C(N)=O [AP306, (2--Naphthylacetyl)-G-G-R-I-D-R-I-G-A-NH2] ({Acetyl(2-naphthyl)}-GGRIDRIGA-NH2) | 2.03
CC[C@H](C)CNC(=O)[C@H](CCCNC(=N)N)NC(=O)[C@H](CC(=O)O)NC(=O)[C@@H](NC(=O)[C@H](CCCNC(=N)N)NC(=O)C1CCN(C(=O)COc2ccc3ccccc3c2)CC1)[C@@H](C)CC [AP810] ({Acetyl(2-naphthyloxy)-Inp}-RIDR-{NH(2S-methylbutyl)}) | 14.1
CC[C@H](C)[C@H](NC(=O)[C@H](CCCNC(=N)N)NC(=O)[C@H](CC(=O)O)NC(=O)[C@@H](NC(=O)[C@H](CCCNC(=N)N)NC(=O)CNC(=O)[C@@H](CO)NC(=O)Cc1ccc2ccccc2c1)[C@@H](C)CC)C(N)=O [AP330, (2-NA)--S^ --G--R--I--D--R--I--NH2] ({Acetyl(2-naphthyl)}-[dS]GRIDRI-NH2) | 16.4
CC[C@H](C)CNC(=O)[C@H](CCCNC(=N)N)NC(=O)[C@H](CC(=O)O)NC(=O)[C@@H](NC(=O)[C@H](CCCNC(=N)N)NC(=O)Cc1ccc(NC(=O)c2ccc3ccccc3c2)cc1)[C@@H](C)CC [AP811] (2Naphthoyl-[X1]RIDR-{NH(2S-methylbutyl)}) | 2.52
AFGGRIDRI-NH2 [AP103, A--F--G--G--R--I--D--R--I--NH2] | 12.42
CC[C@H](C)[C@H](NC(=O)[C@H](CCCNC(=N)N)NC(=O)[C@H](CC(=O)O)NC(=O)[C@@H](NC(=O)[C@H](CCC(N)=O)NC(=O)CNC(=O)CNC(=O)Cc1ccc2ccccc2c1)[C@@H](C)CC)C(N)=O [AP522, (2-NA)--G--G--Q--I--D--R--I--NH2] ({Acetyl(2-naphthyl)}-GGQIDRI-NH2) | 23.0
